Calls of active or inactive are those of the source. The calls are words filed in the database; no cut-off is given here.
Experiments:
[1] = target: T1, Tyrosine-protein kinase Fyn (Homo sapiens, UniProt P06241); assay: Inhibition of basal Fyn activation in hiPSC neural progenitor cells assessed as reduction in pFyn levels in absence of amyloid beta at 10 uM by DAPI staining based immunofluorescence assay; conditions: induced pluripotent stem cell-derived neuron
Target sequence in this assay (P06241 whole entry): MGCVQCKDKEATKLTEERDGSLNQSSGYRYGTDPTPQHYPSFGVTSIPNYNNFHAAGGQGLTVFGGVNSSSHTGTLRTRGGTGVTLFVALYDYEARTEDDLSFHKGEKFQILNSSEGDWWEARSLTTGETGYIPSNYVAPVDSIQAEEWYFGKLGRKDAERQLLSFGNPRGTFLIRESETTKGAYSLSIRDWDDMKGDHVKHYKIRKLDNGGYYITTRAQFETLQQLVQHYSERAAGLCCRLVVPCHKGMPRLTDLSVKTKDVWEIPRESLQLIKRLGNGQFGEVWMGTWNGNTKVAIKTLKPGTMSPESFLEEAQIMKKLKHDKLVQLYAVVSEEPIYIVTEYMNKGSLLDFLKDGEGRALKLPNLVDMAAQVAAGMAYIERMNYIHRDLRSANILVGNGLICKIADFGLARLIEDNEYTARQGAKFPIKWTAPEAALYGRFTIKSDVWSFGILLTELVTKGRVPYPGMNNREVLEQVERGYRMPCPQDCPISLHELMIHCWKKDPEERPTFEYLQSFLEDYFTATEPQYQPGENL

[2] = Octanol/water partition coefficient, log D of compound at pH 7.4 at 1 uM incubated for 2 hrs by LC-MS analysis; format: physicochemical
[3] = target: Acetylcholinesterase (Electrophorus electricus) (UniProt O42275); assay: Inhibition of electric eel AChE at 100 uM using acetylthiocholine iodide as substrate by Ellman's colorimetric analysis relative to control
Chain of Acetylcholinesterase (Electrophorus electricus) (O42275 24-633 limits assumed): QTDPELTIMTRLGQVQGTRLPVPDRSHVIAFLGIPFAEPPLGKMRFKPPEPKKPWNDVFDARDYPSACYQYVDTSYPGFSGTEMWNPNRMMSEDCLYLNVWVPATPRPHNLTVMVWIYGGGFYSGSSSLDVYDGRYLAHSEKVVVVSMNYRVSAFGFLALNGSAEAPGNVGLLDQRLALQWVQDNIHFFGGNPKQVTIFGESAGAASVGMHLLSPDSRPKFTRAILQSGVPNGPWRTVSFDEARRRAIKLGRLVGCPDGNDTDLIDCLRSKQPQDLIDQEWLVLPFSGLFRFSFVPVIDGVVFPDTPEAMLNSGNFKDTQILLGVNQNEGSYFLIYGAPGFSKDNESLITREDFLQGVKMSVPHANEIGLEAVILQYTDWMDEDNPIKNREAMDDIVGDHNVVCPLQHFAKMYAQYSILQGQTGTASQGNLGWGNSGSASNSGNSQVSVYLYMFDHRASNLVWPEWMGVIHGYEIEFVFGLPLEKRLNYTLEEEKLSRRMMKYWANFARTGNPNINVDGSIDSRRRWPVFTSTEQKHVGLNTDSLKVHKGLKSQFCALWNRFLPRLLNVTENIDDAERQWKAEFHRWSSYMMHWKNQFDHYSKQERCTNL

[4] = target: Cholinesterase (Equus caballus) (UniProt P81908); assay: Inhibition of equine serum BuChE at 100 uM using butyrylthiocholine iodide as substrate by Ellman's colorimetric analysis relative to control
Chain of Cholinesterase (Equus caballus) (P81908 whole entry): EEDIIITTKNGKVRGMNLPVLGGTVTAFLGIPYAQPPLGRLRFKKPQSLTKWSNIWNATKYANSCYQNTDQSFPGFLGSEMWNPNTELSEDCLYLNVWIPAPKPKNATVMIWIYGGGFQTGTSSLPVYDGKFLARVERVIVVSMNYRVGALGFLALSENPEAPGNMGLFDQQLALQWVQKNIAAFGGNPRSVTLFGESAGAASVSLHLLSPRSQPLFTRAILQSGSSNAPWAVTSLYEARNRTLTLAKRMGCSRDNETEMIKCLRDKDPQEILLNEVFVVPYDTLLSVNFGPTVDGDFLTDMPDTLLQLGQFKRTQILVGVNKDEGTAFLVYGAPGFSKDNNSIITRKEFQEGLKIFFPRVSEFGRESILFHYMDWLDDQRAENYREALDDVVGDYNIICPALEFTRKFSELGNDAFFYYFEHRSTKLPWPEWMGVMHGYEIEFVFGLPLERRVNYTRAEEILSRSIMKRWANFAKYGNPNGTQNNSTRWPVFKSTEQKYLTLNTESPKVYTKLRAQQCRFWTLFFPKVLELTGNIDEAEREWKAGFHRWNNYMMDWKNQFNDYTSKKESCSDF

[5] = Cytotoxicity against hiPSC neural cells assessed as reduction in cell viability at 10 uM incubated for 24 hrs by MTT assay; format: cell-based; conditions: human, induced pluripotent stem cell-derived neuron
[6] = target: T1, Tyrosine-protein kinase Fyn; assay: Inhibition of natural amyloid beta (1 to 42) -induced Fyn activation in hiPSC neural progenitor cells assessed as reduction in Fyn production at 10 uM preincubated fot 45 mins followed by amyloid beta addition and measured after 15 mins by DAPI/Alexa fluor 594 immunostaining based assay; conditions: Induced pluripotent stem cell-derived neuron, time 60.0 min
Target sequence in this assay (P06241 2-537 limits assumed): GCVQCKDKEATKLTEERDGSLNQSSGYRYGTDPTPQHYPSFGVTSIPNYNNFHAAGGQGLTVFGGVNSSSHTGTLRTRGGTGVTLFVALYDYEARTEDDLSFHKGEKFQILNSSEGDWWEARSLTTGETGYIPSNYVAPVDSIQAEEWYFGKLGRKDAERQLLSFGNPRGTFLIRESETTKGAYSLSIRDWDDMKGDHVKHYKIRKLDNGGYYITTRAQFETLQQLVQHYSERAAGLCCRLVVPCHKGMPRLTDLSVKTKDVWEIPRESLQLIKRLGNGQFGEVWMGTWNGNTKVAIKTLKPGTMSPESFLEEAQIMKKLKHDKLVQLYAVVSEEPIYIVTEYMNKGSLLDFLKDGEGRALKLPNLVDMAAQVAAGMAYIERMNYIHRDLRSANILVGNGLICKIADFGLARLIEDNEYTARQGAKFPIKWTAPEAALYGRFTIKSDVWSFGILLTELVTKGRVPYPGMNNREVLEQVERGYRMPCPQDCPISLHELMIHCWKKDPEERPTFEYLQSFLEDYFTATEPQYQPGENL

[7] = Aggregation property of the compound in PBS buffer assessed as aggregate formation at 10 to 100 uM incubated for 2 hrs by light scattering spectrofluorimetric assay; format: physicochemical; conditions: dose 10-100 µM
[8] = Aggregation property of the compound in PBS buffer at 10 to 100 uM incubated for 2 hrs by UV/Vis double beam spectrophotometric method; format: physicochemical; conditions: dose 10-100 µM
[9] = target: T1, Tyrosine-protein kinase Fyn; assay: Inhibition of amyloid beta-induced Fyn activation in hiPSC neural cells assessed as reduction in tau phosphorylation at Thr 181 residue at 10 uM measured after 4 days by DAPI/Alexa fluor 594 staining based immunocytochemistry analysis; conditions: Induced pluripotent stem cell-derived neuron, time 4.0 day
Target sequence in this assay (P06241 2-537 limits assumed): as above

[10] = pampa, pH 7.4, 16 h
[11] = Cytotoxicity against hiPSC neural cells assessed as reduction in cell viability up to 100 uM incubated for 24 hrs by MTT assay; format: cell-based; conditions: human, induced pluripotent stem cell-derived neuron
[12] = target: Amyloid-beta precursor protein (Homo sapiens) (UniProt P05067); assay: Inhibition of human amyloid beta (1 to 42) self-induced aggregation at 50 uM by Thioflavin T based fluorometric assay
Chain of Amyloid-beta precursor protein (Homo sapiens) (P05067 whole entry): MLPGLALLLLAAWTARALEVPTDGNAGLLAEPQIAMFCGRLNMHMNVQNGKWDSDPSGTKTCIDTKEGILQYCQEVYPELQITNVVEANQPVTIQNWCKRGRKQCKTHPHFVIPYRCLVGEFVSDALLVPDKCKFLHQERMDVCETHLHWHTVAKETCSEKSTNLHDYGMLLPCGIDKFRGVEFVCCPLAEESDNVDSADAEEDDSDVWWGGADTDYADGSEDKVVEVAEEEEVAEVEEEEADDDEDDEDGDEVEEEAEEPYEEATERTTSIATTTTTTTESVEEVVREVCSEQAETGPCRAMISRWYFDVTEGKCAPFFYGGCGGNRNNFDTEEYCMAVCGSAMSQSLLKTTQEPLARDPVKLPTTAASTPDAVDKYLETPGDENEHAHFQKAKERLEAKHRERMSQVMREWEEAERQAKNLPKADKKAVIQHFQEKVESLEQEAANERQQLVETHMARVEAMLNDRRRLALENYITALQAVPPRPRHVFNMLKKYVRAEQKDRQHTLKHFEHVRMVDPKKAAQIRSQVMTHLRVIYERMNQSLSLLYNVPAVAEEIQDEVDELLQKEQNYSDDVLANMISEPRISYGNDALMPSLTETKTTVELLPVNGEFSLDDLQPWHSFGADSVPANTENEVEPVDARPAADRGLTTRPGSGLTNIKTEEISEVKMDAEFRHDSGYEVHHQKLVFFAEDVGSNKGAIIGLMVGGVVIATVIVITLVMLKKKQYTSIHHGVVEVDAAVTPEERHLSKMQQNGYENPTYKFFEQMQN

Saccharomyces cerevisiae [13] = assay: Competitive inhibition of Saccharomyces cerevisiae alpha-glucosidase at 100 uM using p-nitrophenyl glycosides as substrate measured for 125 secs by spectrophotometry analysis relative to control; conditions: time 125.0 sec
[14] = Competitive inhibition of Saccharomyces cerevisiae alpha-glucosidase assessed as inhibition constant for inhibitor-enzyme complex formation using p-nitrophenyl glycosides as substrate measured for 125 secs by spectrophotometry analysis
[15] = Aqueous solubility of the compound in 5 % DMSO at 50 to 100 uM incubated for 2 hrs; format: physicochemical; conditions: buffer, dose 50-100 µM
[16] = Membrane retention of compound assessed as partial membrane retention at pH 7.4 by LC-MS based PAMPA assay; format: ADME
[17] = Membrane retention of compound at pH 7.4 incubated for 16 hrs by PAMPA assay; format: ADME; conditions: pH 7.4, 16 h
[18] = buffer, 100 µM
[19] = target: T1, Tyrosine-protein kinase Fyn; assay: Inhibition of Fyn activation (unknown origin) by ADP-Glo kinase assay
Target sequence in this assay (P06241 2-537 limits assumed): as the sequence (P06241 2-537 limits assumed) above

[20] = Cytotoxicity against hiPSC neural cells assessed as reduction in cell viability up to 50 uM incubated for 24 hrs by MTT assay; format: cell-based; conditions: human, induced pluripotent stem cell-derived neuron
Prunus dulcis = assay: Competitive inhibition of almond beta-glucosidase at 100 uM using p-nitrophenyl glycosides as substrate measured for 125 secs by spectrophotometry analysis relative to control; conditions: time 125.0 sec
[21] = Uncompetitive inhibition of Saccharomyces cerevisiae alpha-glucosidase assessed as inhibition constant for inhibitor-substrate-enzyme complex formation using p-nitrophenyl glycosides as substrate measured for 125 secs by spectrophotometry analysis
[22] = Competitive inhibition of almond beta-glucosidase using p-nitrophenyl glycosides as substrate measured for 125 secs by spectrophotometry analysis; parameters: species or system Prunus dulcis
Saccharomyces cerevisiae [23] = assay: Uncompetitive inhibition of Saccharomyces cerevisiae alpha-glucosidase at 100 uM using p-nitrophenyl glycosides as substrate measured for 125 secs by spectrophotometry analysis relative to control; conditions: time 125.0 sec

Compound	inhibition (INH) [1]	logD at 2 h, 1 µM [2]	inhibition [3]	inhibition [4]	Activity [5]	inhibition [6]	Activity [7]	Activity [8]	inhibition [9]	inhibition [12]	other results
COC[C@H]1O[C@@H](c2c(O)ccc3ccccc23)[C@H](OC)[C@@H](OC)[C@@H]1OC	Not Active	2.7	inactive	23%	Non-Toxic	–	–	–	–	–	–
CC(=O)c1c(O)cc(O)c([C@@H]2O[C@H](CO)[C@@H](O)[C@H](O)[C@H]2O)c1O	Not Active	–	inactive	15%	Non-Toxic	Active	Not Active	Not Active	Active	–	logPeff [10]: Bld; Activity [11]: Non-Toxic
CC(=O)N1CCN(c2ccc(OCC3COC(Cn4ccnc4)(c4ccc(Cl)cc4Cl)O3)cc2)CC1 (stereo not drawn) [KETOCONAZOLE]	–	–	–	–	–	–	Not Active	–	–	–	–
O=c1c(-c2ccc(O)cc2)coc2c([C@@H]3O[C@H](CO)[C@@H](O)[C@H](O)[C@H]3O)c(O)cc(O)c12	–	-0.1	–	–	–	–	–	–	–	–	–
O=C(Cc1ccccc1)Oc1cc(O)cc(O)c1	–	–	–	–	–	–	–	–	–	inactive	–
O=C(Oc1ccccc1O[C@H]1O[C@H](CO)[C@@H](O)[C@H](O)[C@H]1O)c1ccccc1	Not Active	0.1	10%	17%	Non-Toxic	–	Not Active	Not Active	inactive	inactive	inhibition (Saccharomyces cerevisiae [13]): 74%; Ki [14]: 39 µM
COC[C@H]1O[C@@H](c2ccc(OC(=O)c3ccccc3)c(OC(=O)c3ccccc3)c2)[C@H](OC)[C@@H](OC)[C@@H]1OC	Not Active	> 2.5	inactive	12%	Non-Toxic	Active	–	–	Active	inactive	solubility [15]: Insoluble; Drug uptake [16]: Active; Drug uptake [17]: Active; solubility [18]: Insoluble
O=C(Oc1ccc([C@@H]2O[C@H](CO)[C@@H](O)[C@H](O)[C@H]2O)cc1OC(=O)c1ccccc1)c1ccccc1	Not Active	–	inactive	39%	Non-Toxic	Active	Not Active	Not Active	Active	inactive	Activity [11]: Non-Toxic
O=C(Oc1ccc(O[C@H]2O[C@H](CO)[C@@H](O)[C@H](O)[C@H]2O)cc1)c1ccccc1	Not Active	1	inactive	10%	Non-Toxic	–	–	–	Active	–	logPeff [10]: Not Active; Activity [11]: Non-Toxic
COC[C@H]1O[C@@H](c2c(O)cc(O)c(C(C)=O)c2O)[C@H](OC)[C@@H](OC)[C@@H]1OC	Not Active	2.3	inactive	16%	Non-Toxic	Active	Not Active	Not Active	Active	inactive	inhibition [19]: inactive; Activity [20]: Non-Toxic
COC[C@H]1O[C@@H](c2cc(O)ccc2O)[C@H](OC)[C@@H](OC)[C@@H]1OC	Not Active	–	inactive	21%	Non-Toxic	–	Not Active	Not Active	Active	inactive	inhibition [19]: Active
O=C(Oc1ccc(OC(=O)c2ccccc2)c([C@@H]2O[C@H](CO)[C@@H](O)[C@H](O)[C@H]2O)c1)c1ccccc1	Not Active	2	inactive	21%	Non-Toxic	–	–	–	–	–	–
COC[C@H]1O[C@@H](c2ccc(O)c(O)c2)[C@H](OC)[C@@H](OC)[C@@H]1OC	Not Active	1.1	15%	16%	Non-Toxic	–	–	–	–	inactive	–
O=C(Oc1ccc(O)c([C@@H]2O[C@H](CO)[C@@H](O)[C@H](O)[C@H]2O)c1)c1ccccc1	Not Active	< 0.5	inactive	inactive	Non-Toxic	Active	Not Active	Not Active	–	inactive	–
O=c1c(-c2ccc(O)cc2)coc2cc(O)cc(O)c12 [GENISTEIN]	–	3.3	12%	41%	Non-Toxic	Active	–	–	Active	–	inhibition (Prunus dulcis): 44%; Ki [21]: 12 µM; Ki [22]: 66 µM; inhibition (Saccharomyces cerevisiae [23]): 84%
O=C(Cc1ccccc1)c1c(O)cc(O)cc1O	–	–	–	–	–	–	–	–	–	inactive	–
Oc1ccc(OC2O[C@H](COCc3ccccc3)[C@@H](OCc3ccccc3)[C@H](OCc3ccccc3)[C@H]2OCc2ccccc2)cc1 (stereo partly drawn)	–	–	–	–	–	–	–	–	–	inactive	–
COC[C@H]1O[C@@H](c2cc(OC(=O)c3ccccc3)ccc2OC(=O)c2ccccc2)[C@H](OC)[C@@H](OC)[C@@H]1OC	Not Active	> 2.5	19%	16%	Non-Toxic	Active	–	–	Active	–	solubility [15]: Insoluble; logPeff [10]: Not Active; solubility [18]: Insoluble
COC[C@H]1O[C@@H](c2cc(OC(=O)c3ccccc3)ccc2O)[C@H](OC)[C@@H](OC)[C@@H]1OC	Not Active	3.2	14%	12%	Non-Toxic	–	–	–	–	–	Drug uptake [17]: 80%
O=C(Cc1ccccc1)c1c(O)cc(O)c([C@@H]2O[C@H](CO)[C@@H](O)[C@H](O)[C@H]2O)c1O	–	–	inactive	17%	–	–	–	–	–	–	–
COC[C@H]1O[C@@H](c2c(O)cc(O)cc2O)[C@H](OC)[C@@H](OC)[C@@H]1OC	Not Active	1.6	inactive	10%	Non-Toxic	Active	Not Active	Not Active	inactive	–	inhibition [19]: Active
OC[C@H]1O[C@@H](c2c(O)ccc3ccccc23)[C@H](O)[C@@H](O)[C@@H]1O	Not Active	–	inactive	10%	Non-Toxic	Active	Not Active	Not Active	–	inactive	–
